# Experimental data from patent US9624485B2, “Genetic incorporation of unnatural amino acids into proteins in mammalian cells” (The Scripps Research Institute, priority 2006, dated 2017).
# Key:
# [1] = tested on: amber codon in GFP37TAG in T-REx CHO cells; test: Amber suppression of GFP37TAG by BstRNACUA^Tyr/EcTyrRS variants, Western blot of full-length GFP; assay type: cell-based, Chinese hamster; conditions: 8 mM in media, 24 hours
# Experimental: (§1) The ability of the six EcTyrRS variants together with BstRNACUA^Tyr to suppress the amber codon in GFP37TAG was then tested in the presence and absence of unnatural amino acids in the growth media. Transient transfection of cells with plasmids was carried out as described for wild type EcTyrRS. Six hours after transfection, the media were replaced by the fresh media containing 1 μg/ml tetracycline and supplemented with the corresponding unnatural amino acid (pMpa, 10 mM; pApa, 10 mM; pBpa, 1 mM; plpa, 8 mM; pAzpa, 5 mM; or pPpa, 1 mM). Cells were then grown 24 hours for T-REx™ CHO cell lines and 48 hours for T-REx™ 293 cell lines before harvesting. In both T-REx™ CHO and 293 cells, the expression of full length GFP37TAG was dependent upon the presence of unnatural amino acids in the growth media as indicated in FIG. 2 and FIG. 3. […]
# (§2) For Western blot analysis, harvested cells were lysed in RIPA buffer (Upstate Biotechnology/Millipore) with a 1:100 dilution of protease inhibitor cocktail (Sigma). […] Chemiluminescence was then detected with PIERCE ECL Western Blotting substrate. For T-REx™ 293 cells, the membranes were probed with anti-His-HRP (Invitrogen™; 1:5000 dilution) and then detected with PIERCE ECL Western Blotting substrate.
# [2] = tested on: amber codon in GFP37TAG in T-REx 293 cells; test: as above; assay type: cell-based, human; conditions: 8 mM in media, 48 hours
# Experimental: as §1, §2
# T-REx 293 cells = test: Cellular toxicity of the unnatural amino acid in growth media; assay type: cell-based, human; conditions: 8 mM in media
# position 37 of GFP = test: Fidelity of unnatural amino acid incorporation by nano-RP LC/MS/MS and ESI TOF-MS; conditions: for wild type peptide signals in tandem MS of mutant GFP: nano-RP LC/MS/MS of tryptic fragments, T-REx CHO cells
# From the text: To further characterize GFP-pMpa, the mutant protein was expressed in T-REx™ CHO cells transiently transfected with both pSWAN-pMpaRS and pSWAN-GFP37TAG. The protein was purified using an anti-myc antibody agarose column and then separated by SDS-PAGE. The GFP-pMpa band from the SDS-PAGE gel was digested with trypsin and analyzed by nanoscale reversed-phase liquid chromatography/mass spectrometry/mass spectrometry (nano-RP LC/MS/MS). In parallel, wild type GFP was purified from cells transfected with pcDNA4-GFP and subjected to the same analysis.
# Proteolysis of affinity purified proteins (performed for wild-type and pBpa samples) was carried out by overnight incubation of proteins at 37° C. with sequencing-grade modified trypsin (Promega) using a substrate/enzyme ratio of 10:1 (wt/wt) based on the estimated protein concentration in 100 mM triethylammonium bicarbonate buffer (pH 8.5). In-gel digestions (performed for pMpa, pAzpa, pApa, and pPpa samples) were performed according to a modified EMBL procedure (see the website for EMBL, Heidelberg, Germany, Bioanalytical Research Group). Briefly, gel slices were excised to approximately 1 mm×1 mm cubes, washed for 5 minutes with water, 15 minutes with acetonitrile, and dried in a vacuum centrifuge before being rehydrated at 0° C. for 30 minutes with 12.5 ng/μl of sequencing-grade modified trypsin in 50 mM triethylammonium bicarbonate buffer (pH 8.5). Excess buffer was removed and 20 μl of 50 mM triethylammonium bicarbonate buffer (pH 8.5) was added to the gel slices before incubating at 37° C. overnight. Peptides were extracted from the gel slices as described in the protocol.
# Nano-RP LC/MS/MS was performed with an HPLC pump, autosampler (Agilent Technologies, Palo Alto, Calif.), and an LTQ Orbitrap hybrid mass spectrometer (ThermoElectron, San Jose, Calif.). Tryptic digests were loaded with a pressure bomb onto a 75 μm i.d. precolumn packed with 4 cm of 5-μm Monitor C18 particles (Column Engineering, Ontario, Calif.) at a flow rate of approximately 2 μl/min. The precolumn was then connected to the HPLC pump and after several minutes of washing with solvent A the analytical column with integrated emitter tip (360 μm O.D.×75 μm i.d; 10 cm of 5 μM C18, ˜5-μm tip) was connected in series. The chromatographic profile was from 100% solvent A (0.1% aqueous acetic acid) to 50% solvent B (0.1% acetic acid in acetonitrile) in 40 min; the flow rate through the analytical column was ca. 100 nl/min.
# For data-dependent experiments, the mass spectrometer was programmed to first record a high-resolution Orbitrap scan then a full-scan ion trap spectrum (m/z 500-2,000). This was followed by 10 data-dependent MS/MS scans (relative collision energy=35%; 3-Da isolation window) triggered of the ion-trap scan and finally two targeted MS/MS scans. The first targeted MS/MS scan was set to isolate and fragment the doubly charged precursor ion of the predicted unnatural amino acid modified peptide
# at m/z 752.3. The raw data were searched against the MSDB database using MASCOT (Matrixscience, London, UK) for protein identification and to find the scans containing the target peptides with the unnatural amino acids as variable modification. To estimate fidelity at Y*37 of GFP-pMpa, single ion chromatograms (doubly charged precursor ions at m/z 752.3 for the wt and 759.3 for pMpa) and selected ion chromatograms (y9, y11, and y12) were integrated using the Xcalibur software package (ThermoElectron, San Jose, Calif.).
# Intact protein mass spectra were acquired on an automated LC/MS system (Waters, Milford, Mass.) consisting of a capillary LC with auto-sampler and a QTOF2 mass spectrometer. GFP-pMpa (0.1 mg/ml) was loaded onto a reversed-phase protein Captrap (Michrom Bioresources, Auburn, Calif.) for desalting with 0.1% acetic acid in water and eluted with 80% acetonitrile/0.1% acetic acid at 5 μl/min into the ESI source of the mass spectrometer. […]
smiles,measurement,setting,value
"N[C@@H](Cc1ccc(I)cc1)C(=O)O [plpa, p-iodo-L-phenylalanine]",expression level of GFP containing the unnatural amino acid,[1],low expression level
same,expression of GFP containing the unnatural amino acid,[2],no GFP expression
same,time until cells die (cellular toxicity),T-REx 293 cells,6 h
"[N-]=[N+]=Nc1ccc(C[C@H](N)C(=O)O)cc1 [pAzpa, p-azido-L-phenylalanine]",stability of the azido amino acid in mutant GFP seen by tandem MS,position 37 of GFP; mutant GFP containing pAzpa,Most of pAzpa decays to pAmpa
same,wild type peptide signals in tandem MS of mutant GFP,position 37 of GFP,No wild type signals could be detected
"CC(=O)c1ccc(C[C@H](N)C(=O)O)cc1 [pApa, p-acetyl-L-phenylalanine]",wild type peptide signals in tandem MS of mutant GFP,position 37 of GFP,No wild type signals could be detected
"N[C@@H](Cc1ccc(C(=O)c2ccccc2)cc1)C(=O)O [pBpa, p-benzoyl-L-phenylalanine]",wild type peptide signals in tandem MS of mutant GFP,position 37 of GFP,trace amount of the wild type peptide
"C#CCOc1ccc(C[C@H](N)C(=O)O)cc1 [pPpa, p-propargyloxyphenylalanine]",wild type peptide signals in tandem MS of mutant GFP,position 37 of GFP,No wild type signals could be detected
"COc1ccc(C[C@H](N)C(=O)O)cc1 [pMpa, p-methoxy-L-phenylalanine]",wild type GFP signals in intact protein ESI TOF-MS,position 37 of GFP; affinity purified GFP-pMpa,No wild type GFP signals
